According to patent US11135445B2, “Antimicrobial photodynamic inactivation procedure and system” (The General Hospital Corporation, priority 2014, dated 2021):

What was measured:
E. coli [1] = assay: Toxicity of KI alone on bacteria; assay type: cell-based, Escherichia coli K12 (ATCC 33780); conditions: KI 0-50 mM, 10 minutes, dark control and 5 J/cm^2 red light
Procedure: (§1) Since there existed a possibility that KI itself could exert an antimicrobial effect, to eliminate or at least account for the direct influence of the KI on the bacteria and to ensure that the final efficiency of the PDI process is attributed to the potentiation of the MB with the KI, additional qualitative performance evaluation tests were performed. Specifically, the bacteria cells (10^8 CFU; 500 uL) were incubated with different concentrations of KI (0-50 mM) for 10 minutes in order to verify the toxicity of KI. An aliquot of 100 μl from each sample, was used as dark control, another (100 μl) was irradiated with 5 J/cm^2 dose of light (660 nm light) and then placed in a new 96 well plate. The aliquots were serially diluted as before. The results presented in FIGS. 2A, 2B (for S. aureus and E. coli) verified that KI itself was not responsible for the increased potency of the PDI treatment observed in the experiments with the MCPPS.

S. aureus = assay: Toxicity of KI alone on bacteria; assay type: cell-based, Staphylococcus aureus (NCTC 8325); conditions: KI 0-50 mM, 10 minutes, dark control and 5 J/cm^2 red light
Procedure: as §1

[2] = Time-resolved singlet oxygen detection (1,270-nm phosphorescence); assay type: physicochemical
Procedure: The interaction of iodide with singlet oxygen photogenerated by RB was examined directly by measuring the lifetime of singlet oxygen at different concentrations of KI and indirectly by monitoring the effect of increasing concentrations of iodide on oxygen uptake induced by irradiation of the RB solution with green light. Time-resolved singlet oxygen detection was carried out as follows. Phosphate-buffered (pH 7.2) D2O solutions of RB (optical densitv,=0.25 to 0.3 at 550 nm) in a 1-cm-optical-path quartz fluorescence cuvette (catalog number QA-1000; Hellma, Mullheim. Germany) were excited by 550-nm pulses generated by an integrated nanosecond neodymium-doped yttrium aluminum garnet laser system equipped with a narrow-band-width optical parametric oscillator (model NT242-1k-SH/SFG; Ekspla. Vilnius, Lithuania), which delivered pulses at a repetition rate of 1 kHz with energy of up to several hundred microjoules in the visible region. […] The near-infrared luminescence (1,270 nm) was measured perpendicularly to the excitation beam in a photon-counting mode using a thermoelectric cooled near-infrared photomultiplier tube (NIR PMT) module (model H10330-45; Hamamatsu, Japan) equipped with a 1,100-nm-cutoff filter and an additional dichroic narrow-band filter narrow-band pass (NBP), selectable from the spectral range of 1,150 to 1,355 nm (NDC Infrared Engineering Ltd., Maldon, Essex, UK). […]

[3] = system: mammalian dermal skin fibroblasts; assay: Effect of KI in vitro on mammalian cells; assay type: cell-based; conditions: 3 hours, KI 0.001-10 mM
P. aeruginosa [4] = assay: RB-mediated aPDI in vitro with/without KI; assay type: cell-based, Pseudomonas aeruginosa ATCC 19660 (Xen 5P); conditions: no KI
Procedure: (§2) A source of green light was configured from a white lamp and a band-pass filter probe (wavelength, 540±15 nm Lumacare, Newport Beach, Calif., USA) to deliver light over a spot of 4 cm in diameter to simultaneously irradiate four wells of a 24-well plate in vitro or the whole abrasion in vive at an irradiance of 100 mW/cm^2. Light power was measured with a power meter (model DMM 199 with a 201 standard head; Coherent, Santa Clara, Calif., USA).
(§3) The following microbial strains were used: the Gram-positive bacterium methicillin-resistant Staphylococcus aureus (MRSA) USA 300, Gram-negative bacteria Escherichia coli K-12 (ATCC 33780) and Pseurdomonas aeruginosa ATCC 19660 (Xen 5P), and strain CEC 749 of the luciferase-expressing fungal yeast Candida albicans. A colony of bacteria or fungal yeast was suspended in 20 ml of brain heart infusion (BHI) broth for bacteria or yeast extract-peptone-dextrose (YPD) for C. albicans and grown overnight in a shaker incubator (New Brunswick Scientific, Edison, N.J.) at 120 rpm under aerobic conditions at 37° C. for bacteria and at 30° C. for C. albicans. For bacteria, an aliquot of 1 ml from an overnight bacterial suspension was refreshed in fresh BHI for 2 to 3 h at 37° C. to mid-log phase. […] The C. albicans cell number was assessed with a hemocytometer and was generally between 10^7 and 10^8 cells/ml. […]

P. aeruginosa [5] = assay: In vivo PDT of skin abrasions infected with bioluminescent P. aeruginosa; design: species or system BALB/c mice; conditions: RB 500 μM, up to 20 J/cm^2
Procedure: The Pseudomonas aerugenosa strain used in this work was ATCC 19660 (Xen 5P). Bacteria were routinely grown in BHI with aeration in an orbital incubator at 100 rpm and 37° C. overnight to stationary phase. An aliquot of this suspension was then refreshed in fresh BHI to mid-log phase. Cell numbers were estimated by measuring the OD at 600 nm (OD of 0.6=10^8 CFU cells/ml). The bacterial suspension was centrifuged, washed, and resuspended in PBS, and the suspension was diluted 10-fold for the in vivo experiments.
An IVIS Lumina series III in vivo imaging system (PerkinElmer, Inc., Waltham, Mass., USA) was applied for bioluminescence imaging on a daily basis until the disappearance of the infection by bioluminescence imaging. Using the photon counting mode, an image can be obtained by detecting and integrating individual photons emitted by the bacterial cells. Prior to PDT and imaging, mice were anesthetized by intraperitoneal (i.p.) injection of a ketamine-xylazine cocktail. […] The signal from the bioluminescence image was quantified as the region of interest (ROI), with absolute calibrated data being given as the number of photons/(s cm^2 sr), using the IVIS software. […]
Mice were divided into four groups of 5 mice each. […] Then, the wounds were irradiated with green light at a fluence of up to 20 J/cm^2, and luminescence imaging was performed after irradiation.

E. coli [6] = assay: RB-mediated aPDI in vitro with/without KI; assay type: cell-based, Escherichia coli K-12 (ATCC 33780); conditions: for killing: 10 μM RB
Procedure: as §2
(§4) The following microbial strains were used: the Gram-positive bacterium methicillin-resistant Staphylococcus aureus (MRSA) USA 300, Gram-negative bacteria Escherichia coli K-12 (ATCC 33780) and Pseurdomonas aeruginosa ATCC 19660 (Xen 5P), and strain CEC 749 of the luciferase-expressing fungal yeast Candida albicans. A colony of bacteria or fungal yeast was suspended in 20 ml of brain heart infusion (BHI) broth for bacteria or yeast extract-peptone-dextrose (YPD) for C. albicans and grown overnight in a shaker incubator (New Brunswick Scientific, Edison, N.J.) at 120 rpm under aerobic conditions at 37° C. for bacteria and at 30° C. for C. albicans. For bacteria, an aliquot of 1 ml from an overnight bacterial suspension was refreshed in fresh BHI for 2 to 3 h at 37° C. to mid-log phase. The cell concentration was estimated by measuring the optical density (OD) at 600 nm (OD of 0.6=10^8 cells/ml). The C. albicans cell number was assessed with a hemocytometer and was generally between 10^7 and 10^8 cells/ml.
(§5) Two types of in vitro aPDI experiments were carried out. The first experiments used cells with fixed RB and KI concentrations while varying the dose of irradiating light. The second type of experiments used cells with a fixed RB concentration and a fixed light dose while varying the KI concentration. Here, comparison was performed based on the order of addition of the components and the effect of centrifugation. […]

C. albicans = assay: RB-mediated aPDI in vitro with/without KI; assay type: cell-based, Candida albicans CEC 749
Procedure: as §2, §3

MRSA = assay: RB-mediated aPDI in vitro with/without KI; assay type: cell-based, methicillin-resistant Staphylococcus aureus (MRSA) USA 300
Procedure: as §2, §4, §5

Row | Compound | bacteria killing by KI alone (E. coli [1]) | bacteria killing by KI alone (S. aureus) | shortening of observable lifetime of singlet oxygen-dependent luminescence ([2]; 35 mM KI, RB in D2O) | bimolecular rate constant of quenching (kq) of singlet oxygen ([2]; RB-photogenerated singlet oxygen, KI 0 to 50 mM) | killing of mammalian cells by KI [3] | killing by RB aPDI in the absence of KI (P. aeruginosa [4]) | reduction in the bioluminescence signal with 540-nm light (P. aeruginosa [5]) | killing (E. coli [6]; no KI, 20 J/cm^2 540 nm) [logs] | killing (E. coli [6]; with or without 100 mM KI, 10 J/cm^2 540 nm) | killing by RB aPDI in the absence of KI (E. coli [6]; no KI) | killing (C. albicans; 10 μM RB plus light, no KI, either fluence (10, 20 J/cm^2)) | killing, cells centrifuged after incubation with RB (C. albicans; 10 μM RB, 10 J/cm^2, KI up to 100 mM) | killing (MRSA; 100 nM RB plus light, no KI) [logs] | killing after a spin (centrifugation) (MRSA; 100 nM RB, 10 J/cm^2) | RB concentration that produced eradication (MRSA; RB as antimicrobial PS plus light) [nM]
1 | [I-].[K+] [KI, potassium iodide] | no bacteria killing was found | no bacteria killing was found | more than 3 fold | 1.1*10^6 l/(m*s) | did not kill mammalian cells |  |  |  |  |  |  |  |  |  | 
2 | O=C1OC2(c3cc(I)c(O)c(I)c3Oc3c2cc(I)c(O)c3I)c2c(Cl)c(Cl)c(Cl)c(Cl)c21 [RB, Rose bengal] |  |  |  |  |  | almost no killing | only a slight reduction | 2 | less than 1 logs | almost no killing | no killing | some minor killing after centrifugation | 1 to 2 | centrifugation abolished the killing | 200
